Source: patent US8501740B2, “Methods of treatment of opioid tolerance, physical dependence, pain and addiction with inhibitors of certain growth factor receptors” (priority 2007, dated 2013)
“Also recorded” adds a separate entry of the source.

Tests used:
[1] = tested on: rat; experiment: Tail-flick latency (TFL) test of morphine analgesia and tolerance; assay type: in vivo; settings: for Analgesic effect of the drug itself: administered alone, without morphine; for Development versus behavioral expression of morphine tolerance (tail flick latency): co-administered with morphine for several days, then morphine alone on the final day; for Effect on analgesic effect of morphine given subsequently: drug in 10% cyclodextrin vehicle for 4 days, morphine alone on day 5; for Reversal of established morphine tolerance: morphine given for varying periods, then drug added
Description: Analgesic effectiveness is typically studied using the tail-flick test, where a hot light is shined on a rat's tail and the time required for the rat to move (“flick”) its tail recorded (TFL, or tail flick latency).
To determine whether GLEEVEC® (imatinib) blocked the development or expression of tolerance, morphine and GLEEVEC® (imatinib) was co-administered for 4 days, and then on day 5 morphine alone was administered.
To determine whether IRESSA® (gefitinib) blocked the development or expression of tolerance, morphine and IRESSA® (gefitinib) was co-administered for 4 days, and then on day 5 morphine alone was administered.
(§1) A drug can inhibit the expression of narcotic tolerance if it is analgesic itself or if previous drug administration alters subsequent narcotic analgesia. To determine whether either of these possibilities were the case, animals were treated animals with either the cyclodextrin-based vehicle used to solubilize GLEEVEC® (imatinib) (10% CDSBE) or GLEEVEC® (imatinib) in vehicle for 4 days, and then on the fifth day were given morphine alone.
as §1, with “altered” for “alters subsequent”, “IRESSA® (gefitinib)” for “GLEEVEC® (imatinib)”, “CAPTISOL® (sulfobutylether-β-cyclodextrin))” for “CDSBE)”
Another possible explanation for apparent inhibition of opioid tolerance would be that GLEEVEC® (imatinib) or IRESSA® (gefitinib) could alter morphine pharmacokinetics, causing a different time course of analgesia with co-administration.
Next it was desirable to determine if GLEEVEC® (imatinib) could reverse morphine tolerance. NMDA antagonists, which are known to inhibit the development of morphine tolerance, can only partially reverse morphine tolerance, and cannot reverse established tolerance. In addition, NMDA antagonists are highly toxic (many are chemically related to PCP), which also severely limits their clinical use. To determine whether GLEEVEC® (imatinib) could reverse established morphine tolerance, morphine was given for varying periods of time, and then GLEEVEC® (imatinib) was added. […] On day 7, morphine alone was given to all groups.

[2] = tested on: rats that have undergone sciatic nerve ligation; experiment: Sciatic nerve ligation model of neuropathic pain, Von Frey hair testing; assay type: in vivo; settings: for Effect upon allodynia / analgesia (Von Frey hairs): sciatic nerve ligation, alone or co-administered as labelled
From the text: (§2) To test the methods of treatment presented herein, we use the sciatic nerve ligation model of Chung et al. (model of neuropathic pain). Chung, J. M., H. K. Kim, and K. Chung, Segmental Spinal Nerve Ligation Model Of Neuropathic Pain, Methods Mol Med, 2004. 99: p. 35-45. Animals undergo this ligation procedure, are allowed to recover, and tested for pain sensitivity using Von Frey hairs and/or pressure testing.
as §2, with “spinal nerve ligation model of neuropathic pain.” for “Spinal Nerve Ligation Model Of Neuropathic Pain,”

[3] = tested on: animals made physically dependent upon morphine; experiment: Morphine physical dependence, naloxone-precipitated withdrawal; assay type: in vivo; settings: morphine pellets, drug systemically twice daily
From the text: Animals were pelleted with continuous release morphine pellets, and treated with GLEEVEC® (imatinib) systemically twice daily. Withdrawal was precipitated by injection of naloxone.

[4] = tested on: PDGF receptor; settings: cited from earlier work
[5] = tested on: PDGFR-beta; experiment: PDGFR-beta tyrosine phosphorylation in cell lines (immunoprecipitation, Western blotting with PY-20); assay type: cell-based
Description: Cells were treated with morphine, gabapentin, morphine and gabapentin, or water for 40 minutes. Cells were then washed, lysed, and immunoprecipitation was performed using a PDGFR-beta antibody. Western blotting was then performed using PY-20 antibody, which detects tyrosine phosphorylation. Blots were then stripped and re-probed with PDGFR-beta antibody to control for the amount of PDGFR-beta loaded in each lane.

[6] = tested on: alcohol dependent animals; settings: cited from earlier work

SMILES	Analgesic effect of the drug itself [1]	Inhibition of tolerance when co-administered with morphine from the beginning [1]	Development versus behavioral expression of morphine tolerance (tail flick latency) [1]	Effect on analgesic effect of morphine given subsequently [1]	Reversal of established morphine tolerance [1]	Inhibition of morphine tolerance ([1]; spinally administered, initial studies)	Effect upon allodynia / analgesia (Von Frey hairs) [2]	Weight loss in precipitated withdrawal [3]	Withdrawal behaviors in precipitated withdrawal [3]	Inhibition of receptor tyrosine kinase activity of the PDGF receptor [4]	Doses required to block behavioral expression of tolerance, relative to GLEEVEC (imatinib) ([1]; rat, in vivo) [fold higher]	Number of doses to achieve peak effect ([2]; sciatic nerve ligation model)	Block of morphine-induced PDGFR-beta phosphorylation / PDGFR activation ([5]; co-administration with morphine, 40 minutes)	Alcohol intake and self-administration ([6]; alcohol dependent animals)	Anxiogenic effects of alcohol withdrawal ([6]; alcohol dependent rats)	Time of peak analgesic effect ([1]; time course on 4 consecutive days) [min]	Increase in PDGFR-beta phosphorylation ([5]; cells treated for 40 minutes) [%]
Cc1ccc(NC(=O)c2ccc(CN3CCN(C)CC3)cc2)cc1Nc1nccc(-c2cccnc2)n1 [GLEEVEC® (imatinib), imatinib]	do not exhibit analgesic effects; also recorded: neither GLEEVEC® (imatinib) nor vehicle was analgesic when administered alone; also recorded: no analgesic effect at any time point	inhibited tolerance	inhibits the behavioral expression, not the development of opioid tolerance; also recorded: blocked the behavioral expression of morphine tolerance; also recorded: inhibited the expression of tolerance alone	do not exhibit analgesic effects, or interfere with the analgesic effects of morphine; also recorded: did not alter the analgesic effect of morphine given subsequently on day 5	completely reverses and inhibits the behavioral expression of tolerance; also recorded: completely reversed tolerance	inhibited morphine tolerance	neither morphine nor GLEEVEC® (imatinib) alone have analgesic properties; also recorded: had no effect upon allodynia	without affecting weight loss; also recorded: Weight loss was not affected	reduces the behavioral expression of paw shakes and wet dog shakes; also recorded: withdrawal behaviors such as teeth chattering and wet dog shakes were reduced	inhibit the receptor tyrosine kinase activity of the PDGF receptor							
COc1cc2ncnc(Nc3ccc(F)c(Cl)c3)c2cc1OCCCN1CCOCC1 [IRESSA® (gefitinib), gefitinib]	do not exhibit analgesic effects; also recorded: neither IRESSA® (gefitinib) nor vehicle was analgesic when administered alone		inhibits the development, not the behavioral expression of opioid tolerance; also recorded: inhibited the development of morphine tolerance	do not exhibit analgesic effects, or interfere with the analgesic effects of morphine; also recorded: did not alter the analgesic effect of morphine given on day 5			neither morphine nor IRESSA® (gefitinib) alone have analgesic properties; also recorded: had no effect upon allodynia										
NCC1(CC(=O)O)CCCCC1 [gabapentin]	not analgesic itself	blocks tolerance	blocks the behavioral expression of tolerance		reverses established tolerance		does not cause complete analgesia				10 to 100	takes several doses to achieve its peak effect	blocked by co-administration of gabapentin	reduce alcohol intake and self-administration	reversing anxiogenic effects of alcohol withdrawal		
CN1CC[C@]23c4c5ccc(O)c4O[C@H]2[C@@H](O)C=C[C@H]3[C@H]1C5 [morphine]							neither morphine nor IRESSA® (gefitinib) alone have analgesic properties; also recorded: neither morphine nor GLEEVEC® (imatinib) alone have analgesic properties; also recorded: had no effect upon allodynia									30	40
